Reference: patent US7563801B2, “Pharmaceutical formulations: salts of 8-[{1-(3,5-Bis-(trifluoromethyl)phenyl)-ethoxy}-methyl]-8-phenyl-1,7-diaza-spiro[4.5]decan-2-one and treatment methods using the same” (Schering Corporation, priority 2006, dated 2009)

Legend:
[1] = Second study: 10, 25 or 50 mg per day for 10 days in healthy volunteers, pharmacokinetics on days 1 and 10; type: in vivo, human; conditions: for Cmax / AUC / Tmax / half-life: plasma, oral; for Cmax: read-out: Cmax (mean maximum plasma concentration); for AUC: footnote: 0 to 72 hours post administration, read-out: AUC (area under the plasma concentration time curve); for Tmax: read-out: Tmax (median time of maximum plasma concentration); for half-life: read-out: Half Life T ½ (converted)
Experimental: In a second study, three cohorts of 8 healthy volunteers each were administered 10, 25, or 50 mg per day for each of 10 days. Administration in every case followed a 10 hour fast. Blood samples were collected from each volunteer at predose (hour 0) and 0.25, 0.5, 0.75, 1, 1.5, 2, 3, 4, 6, 8, 12, 16, 24, 36, 48, and 72 hours on each of days 1 and 10.

[2] = Single dose rising study of the encapsulated formulation in healthy human volunteers, pharmacokinetics; type: in vivo; conditions: for AUC / Cmax / Tmax / half-life: plasma, oral capsule; for AUC: 0 to 72 hours post administration, read-out: AUC (area under the plasma concentration time curve); for Cmax: read-out: Cmax (mean maximum plasma concentration); for Tmax: read-out: Tmax (median time of maximum plasma concentration); for half-life: read-out: Half Life T ½ (converted)
Experimental: Another aspect of the present invention is the provision of a pharmaceutical formulation comprising a hydrochloride monohydrate salt of Formula II in a capsule oral dosage form which has a Pharmacokinetic (PK) profile obtained under single dose rising rate study conditions in accordance with Table VIII (average of eight study subjects).
Blood samples were collected from each volunteer at predose (hour 0) and 0.25, 0.5, 0.75, 1, 1.5, 2, 3, 4, 6, 8, 12, 16, 24, 36, 48, and 72 hours. The serum drug levels of the volunteers receiving active drug are present graphically in FIG. 2.

[3] = human, 10 mg per day, human, 10 mg per day, Day 1
[4] = human, 10 mg per day, human, 10 mg per day, Day 10
[5] = human, 25 mg per day, human, 25 mg per day, Day 1
[6] = human, 25 mg per day, human, 25 mg per day, Day 10
[7] = human, 50 mg per day, human, 50 mg per day, Day 1
[8] = human, 50 mg per day, human, 50 mg per day, Day 10

For `C[C@@H](OC[C@@]1(c2ccccc2)CC[C@]2(CCC(=O)N2)CN1)c1cc(C(F)(F)F)cc(C(F)(F)F)c1` [(5S,8S)-8-[{(1R)-1-(3,5-Bis-(trifluoromethyl)phenyl]-ethoxy}-methyl]-8-phenyl-1,7-diazaspiro[4,5]decan-2-one], the Absorption ([1]; human, 10, 25 or 50 mg per day for 10 days) was “rapidly absorbed”, the “Accumulation relative to the single dose” value ([1]; human, daily dosing for 10 days) was “approximately 5 fold” and the Cmax ([1]; human, 10 mg per day, human, 10 mg per day, Day 1, after 10 hour fast) was 48.6 ng/mL. The AUC [1, 3] was 673 ng·h/mL, the Tmax [1, 3] was 3 h and the Cmax ([1]; human, 10 mg per day, human, 10 mg per day, Day 10, after 10 hour fast) was 180 ng/mL. For the same compound, the AUC [1, 4] was 3590 ng·h/mL, the Tmax [1, 4] was 3 h and the Cmax ([1]; human, 25 mg per day, human, 25 mg per day, Day 1, after 10 hour fast) was 139 ng/mL. For the same compound, the AUC [1, 5] was 1950 ng·h/mL, the Tmax [1, 5] was 2 h and the Cmax ([1]; human, 25 mg per day, human, 25 mg per day, Day 10, after 10 hour fast) was 491 ng/mL. The AUC [1, 6] was 9720 ng·h/mL, the Tmax [1, 6] was 2 h and the Cmax ([1]; human, 50 mg per day, human, 50 mg per day, Day 1, after 10 hour fast) was 254 ng/mL. The AUC [1, 7] was 3400 ng·h/mL, the Tmax [1, 7] was 3 h and the Cmax ([1]; human, 50 mg per day, human, 50 mg per day, Day 10, after 10 hour fast) was 895 ng/mL. It also gave an AUC [1, 8] of 17700 ng·h/mL, a Tmax [1, 8] of 2.5 h and a half-life ([1]; human, 10 mg per day, Day 10) of 238 h. It also gave a half-life ([1]; human, 50 mg per day, Day 10) of 172 h, an AUC ([2]; single dose 5 mg) of 931 ng·h/mL and a Cmax ([2]; single dose 5 mg) of 27.3 ng/mL. The Tmax ([2]; single dose 5 mg) was 2 h, the AUC ([2]; single dose 10 mg) was 1820 ng·h/mL and the Cmax ([2]; single dose 10 mg) was 52.7 ng/mL. For the same compound, the Tmax ([2]; single dose 10 mg) was 2.5 h, the AUC ([2]; single dose 25 mg) was 17200 ng·h/mL and the Cmax ([2]; single dose 25 mg) was 119 ng/mL. It also gave a half-life ([2]; single dose 25 mg) of 183 h, a Tmax ([2]; single dose 25 mg) of 2.5 h and an AUC ([2]; single dose 50 mg) of 33600 ng·h/mL. For the same compound, the Cmax ([2]; single dose 50 mg) was 276 ng/mL, the half-life ([2]; single dose 50 mg) was 171 h and the Tmax ([2]; single dose 50 mg) was 3 h. The AUC ([2]; single dose 100 mg) was 74400 ng·h/mL, the Cmax ([2]; single dose 100 mg) was 475 ng/mL and the half-life ([2]; single dose 100 mg) was 181 h. For the same compound, the Tmax ([2]; single dose 100 mg) was 2 h, the AUC ([2]; single dose 200 mg) was 148000 ng·h/mL and the Cmax ([2]; single dose 200 mg) was 944 ng/mL. For the same compound, the half-life ([2]; single dose 200 mg) was 169 h, the Tmax ([2]; single dose 200 mg) was 4 h and the Absorption ([2]; single oral doses 5 to 200 mg) was “rapidly absorbed”.
